Assay results published in patent publication US20250134825A1, “METHOD FOR PRODUCING MEDICATIONS AND VACCINES” (MSLsolutions GmbH, priority 2022, published 2025).

Key:
[1] = Stability of vitamin C (model substance for mRNA) in the carrier system; type: physicochemical; conditions: more than 15 wt. % vitamin C, with panthenol, composition of Table 16
[2] = single substance, value given in the literature; cited from earlier work
[3] = Solubility in solvents (2,5-dimethylisosorbide, water, polyols); conditions: temperature range 55° C. to 70° C.

O=C1O[C@H]([C@@H](O)CO)C(O)=C1O [vitamin C, ascorbic acid]
stability in the composition or carrier system [1]: high stability

CCCCCCCCCCCCCCCCCC(=O)OC[C@H](COP(=O)([O-])OCC[N+](C)(C)C)OC(=O)CCCCCCCCCCCCCCCCC [DSPC, 1,2-distearoyl-sn-glycero-3-phosphocholine]
HLB [2]: 4.5

CC[C@H](/C=C/[C@@H](C)[C@H]1CC[C@H]2[C@@H]3CC=C4C[C@@H](O)CC[C@]4(C)[C@H]3CC[C@]12C)C(C)C [stigmasterol]
concentration completely dissolved in 2,5-dimethylisosorbide [3]: over 50%

CC(C)CCC[C@@H](C)[C@H]1CC[C@H]2[C@@H]3CC=C4C[C@@H](O)CC[C@]4(C)[C@H]3CC[C@]12C [cholesterol]
solubility in 2,5-dimethylisosorbide [3]: dissolved in high concentrations
